Experimental data taken from ChEMBL document CHEMBL3885861, “Open TG-GATES”.

Species on record: Rattus norvegicus
Assay: Open TG-GATES - Regimen: Single
Type: toxicity, organism-based, Sprague-Dawley
Set-up: regimen Single, gender Male, age 6 weeks
Settings: in vivo, iv, route intravenous injection; for IP / K / LDH / Na / PL / RALB / TBIL / TC / TG / TP / gamma-GTP / A/G / ALP / ALT / AST / BUN / CRE / Ca / Cl / DBIL / GLC: tissue Plasma; for APTT / Bas / Eos / Fbg / Hb / Ht / Lym / MCH / MCHC / MCV / Mono / Neu / PT / Plat / RBC / Ret / WBC: tissue Blood; for KIDNEY_L / KIDNEY_R / KIDNEY_TOTAL: tissue Kidney; for LIVER: tissue Liver
[1] = 2 mg/kg, 6 h, dose level Middle
[2] = 2 mg/kg, 9 h, dose level Middle
[3] = 2 mg/kg, 24 h, dose level Middle

In the case of `C[C@@H]1[C@H](O)[C@@H](C)/C=C/C=C/C=C/C=C/C=C/C=C/C=C/[C@H](O[C@@H]2O[C@H](C)[C@@H](O)[C@H](N)[C@@H]2O)C[C@@H]2O[C@](O)(C[C@@H](O)C[C@@H](O)[C@H](O)CC[C@@H](O)C[C@@H](O)CC(=O)O[C@H]1C)C[C@H](O)[C@H]2C(=O)O` [AMPHOTERICIN B], the IP [1] is reported as 11.3 mg/dL, the K [1] is reported as 5.5 meq/L and the LDH [1] is reported as 531 IU/L. The Na [1] was 142.5 meq/L, the PL [1] was 116.2 mg/dL and the RALB [1] was 2.5 g/dL. For the same compound, the TBIL [1] was 0.0675 mg/dL, the TC [1] was 69 mg/dL and the TG [1] was 41 mg/dL. It also gave a TP [1] of 5.5 g/dL, a gamma-GTP [1] of 3.2 IU/L and a TERMINAL_BW [2] of 209.6 g. It also gave an APTT [2] of 16.5 s, a Bas [2] of 0% and an Eos [2] of 0.2%. The Fbg [2] was 288.2 mg/dL, the Hb [2] was 13.5 g/dL and the Ht [2] was 37.5%. For the same compound, the Lym [2] was 59%, the MCH [2] was 21.2 pg and the MCHC [2] was 36%. The MCV [2] was 59 fL, the Mono [2] was 3.5% and the Neu [2] was 35.8%. It also gave a PT [2] of 12.8 s, a Plat [2] of 147.9 x10_4/uL and an RBC [2] of 634.8 x10_4/ul. The Ret [2] was 7.8%, the WBC [2] was 117.4 x10_2/uL and the KIDNEY_L [2] was 1 g. For the same compound, the KIDNEY_R [2] was 1 g, the KIDNEY_TOTAL [2] was 2 g and the LIVER [2] was 8.3 g. It also gave an A/G [2] of 0.8, an ALP [2] of 1444 IU/L and an ALT [2] of 39.5 IU/L. The AST [2] was 80.8 IU/L, the BUN [2] was 29.8 mg/dL and the CRE [2] was 0.2 mg/dL. It also gave a Ca [2] of 10.8 mg/dL, a Cl [2] of 109.2 meq/L and a DBIL [2] of 0.0225 mg/dL. The GLC [2] was 171.5 mg/dL, the IP [2] was 10.7 mg/dL and the K [2] was 3.8 meq/L. For the same compound, the LDH [2] was 64.8 IU/L, the Na [2] was 145 meq/L and the PL [2] was 139.8 mg/dL. It also gave an RALB [2] of 2.5 g/dL, a TBIL [2] of 0.0875 mg/dL and a TC [2] of 83.5 mg/dL. For the same compound, the TG [2] was 22.8 mg/dL, the TP [2] was 5.6 g/dL and the gamma-GTP [2] was 1.5 IU/L. The TERMINAL_BW [3] was 219.6 g, the APTT [3] was 14.8 s and the Bas [3] was 0%. The Eos [3] was 1%, the Fbg [3] was 363 mg/dL and the Hb [3] was 13.6 g/dL. It also gave a Ht [3] of 39.2%, a Lym [3] of 74% and an MCH [3] of 20.6 pg. For the same compound, the MCHC [3] was 34.7%, the MCV [3] was 59.2 fL and the Mono [3] was 2.7%. For the same compound, the Neu [3] was 21.7%, the PT [3] was 12.3 s and the Plat [3] was 150.1 x10_4/uL. For the same compound, the RBC [3] was 663 x10_4/ul, the Ret [3] was 6.5% and the WBC [3] was 92.3 x10_2/uL. The KIDNEY_L [3] was 1 g, the KIDNEY_R [3] was 1 g and the KIDNEY_TOTAL [3] was 2 g. The LIVER [3] was 10.1 g, the A/G [3] was 0.8 and the ALP [3] was 1322 IU/L. For the same compound, the ALT [3] was 32.3 IU/L, the AST [3] was 65 IU/L and the BUN [3] was 22.7 mg/dL. The CRE [3] was 0.2 mg/dL, the Ca [3] was 11 mg/dL and the Cl [3] was 106.7 meq/L. The DBIL [3] was 0.0133 mg/dL, the GLC [3] was 171.3 mg/dL and the IP [3] was 7.6 mg/dL. It also gave a K [3] of 4.3 meq/L, an LDH [3] of 57.3 IU/L and a Na [3] of 144 meq/L. For the same compound, the PL [3] was 148.7 mg/dL, the RALB [3] was 2.6 g/dL and the TBIL [3] was 0.0567 mg/dL. It also gave a TC [3] of 91.3 mg/dL, a TG [3] of 64.7 mg/dL and a TP [3] of 5.9 g/dL. The gamma-GTP [3] was 1.3 IU/L, the TERMINAL_BW (4 mg/kg, 24 h, dose level High) was 207 g and the APTT (4 mg/kg, 24 h, dose level High) was 12.7 s. The Bas (4 mg/kg, 24 h, dose level High) was 0%, the Eos (4 mg/kg, 24 h, dose level High) was 1% and the Fbg (4 mg/kg, 24 h, dose level High) was 536 mg/dL. The Hb (4 mg/kg, 24 h, dose level High) was 14.3 g/dL, the Ht (4 mg/kg, 24 h, dose level High) was 37.3% and the Lym (4 mg/kg, 24 h, dose level High) was 55%. It also gave an MCH (4 mg/kg, 24 h, dose level High) of 21.1 pg, an MCHC (4 mg/kg, 24 h, dose level High) of 38.3% and an MCV (4 mg/kg, 24 h, dose level High) of 55.1 fL. For the same compound, the Mono (4 mg/kg, 24 h, dose level High) was 2%, the Neu (4 mg/kg, 24 h, dose level High) was 42% and the PT (4 mg/kg, 24 h, dose level High) was 11.1 s. It also gave a Plat (4 mg/kg, 24 h, dose level High) of 105.2 x10_4/uL, an RBC (4 mg/kg, 24 h, dose level High) of 676 x10_4/ul and a Ret (4 mg/kg, 24 h, dose level High) of 6.3%. For the same compound, the WBC (4 mg/kg, 24 h, dose level High) was 121.2 x10_2/uL, the KIDNEY_L (4 mg/kg, 24 h, dose level High) was 1.2 g and the KIDNEY_R (4 mg/kg, 24 h, dose level High) was 1.1 g. It also gave a KIDNEY_TOTAL (4 mg/kg, 24 h, dose level High) of 2.4 g, an LIVER (4 mg/kg, 24 h, dose level High) of 8.7 g and an A/G (4 mg/kg, 24 h, dose level High) of 0.7. The ALP (4 mg/kg, 24 h, dose level High) was 1402 IU/L, the ALT (4 mg/kg, 24 h, dose level High) was 227 IU/L and the AST (4 mg/kg, 24 h, dose level High) was 699 IU/L. For the same compound, the BUN (4 mg/kg, 24 h, dose level High) was 53 mg/dL, the CRE (4 mg/kg, 24 h, dose level High) was 0.3 mg/dL and the Ca (4 mg/kg, 24 h, dose level High) was 11 mg/dL. For the same compound, the Cl (4 mg/kg, 24 h, dose level High) was 108 meq/L, the DBIL (4 mg/kg, 24 h, dose level High) was 0.03 mg/dL and the GLC (4 mg/kg, 24 h, dose level High) was 160 mg/dL. For the same compound, the IP (4 mg/kg, 24 h, dose level High) was 8 mg/dL, the K (4 mg/kg, 24 h, dose level High) was 4.1 meq/L and the LDH (4 mg/kg, 24 h, dose level High) was 117 IU/L. The Na (4 mg/kg, 24 h, dose level High) was 146 meq/L, the PL (4 mg/kg, 24 h, dose level High) was 111 mg/dL and the RALB (4 mg/kg, 24 h, dose level High) was 2.5 g/dL. It also gave a TBIL (4 mg/kg, 24 h, dose level High) of 0.1 mg/dL, a TC (4 mg/kg, 24 h, dose level High) of 76 mg/dL and a TG (4 mg/kg, 24 h, dose level High) of 13 mg/dL. It also gave a TP (4 mg/kg, 24 h, dose level High) of 6.1 g/dL and a gamma-GTP (4 mg/kg, 24 h, dose level High) of 2 IU/L.
